Results published in patent US11065251B2, “PAK1 inhibitors and uses thereof” (Albert Einstein College of Medicine, priority 2016, dated 2021).
Like-named read-outs stand apart in the source and are kept apart here. Blank lines part the entries; values can stand above or below the compound they belong to.

Experiments:
[1] = Microsomal stability, mouse (MLM); format: in vitro ADME; details: for microsomal CLint / half-life: liver microsomes; for half-life: read-out: t½; for ER / CLh: mouse microsomes; for CLh: in mL/min/kg (unit assumed)
[2] = Microsomal stability, human (HLM); format: in vitro ADME; details: human microsomes; for CLh: in mL/min/kg (unit assumed); for microsomal CLint / half-life: liver microsomes; for half-life: read-out: t½
[3] = Pharmacokinetic (PK) assessment in rats; format: in vivo; details: for Fabs, % (from AUCINF) / Fabs, % (from AUClast): PO 10 mg/kg versus IV 2 mg/kg; for C0 / Cmax / MRT inf / Tmax / clearance / MRT last / half-life / CL/F / Vd/F / AUC(0-inf) / AUC(0-t) / Vd: rat, plasma; for MRT last: read-out: MRTlast; for half-life: read-out: T ½ (converted); for Vd/F: read-out: Vz/F
[4] = system: larger kinase panel; assay: Selectivity against a larger kinase panel; format: binding; details: in words
[5] = target: PAK1 (Homo sapiens, UniProt Q13153); assay: PAK1 IC50 determination, Z'-LYTE kinase assay; format: biochemical; details: [ATP]=10×Km; [PAK1]=1 ng; read-out: IC50 against PAK1
PAK1, sequence (Q13153 whole entry): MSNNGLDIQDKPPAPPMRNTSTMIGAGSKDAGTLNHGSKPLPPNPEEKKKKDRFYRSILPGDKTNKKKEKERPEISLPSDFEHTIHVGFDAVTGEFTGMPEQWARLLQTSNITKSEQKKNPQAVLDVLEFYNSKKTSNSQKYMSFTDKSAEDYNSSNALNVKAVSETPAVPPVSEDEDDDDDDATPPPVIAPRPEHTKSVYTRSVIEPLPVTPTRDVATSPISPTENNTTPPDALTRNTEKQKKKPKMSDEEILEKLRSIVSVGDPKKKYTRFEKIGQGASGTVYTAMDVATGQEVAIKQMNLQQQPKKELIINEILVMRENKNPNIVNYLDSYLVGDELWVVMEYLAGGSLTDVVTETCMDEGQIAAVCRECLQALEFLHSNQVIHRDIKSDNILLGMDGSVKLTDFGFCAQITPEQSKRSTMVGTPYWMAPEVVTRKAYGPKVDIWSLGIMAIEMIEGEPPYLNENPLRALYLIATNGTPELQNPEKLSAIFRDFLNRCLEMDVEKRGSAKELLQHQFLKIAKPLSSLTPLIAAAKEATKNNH
Protocol: Protocol for determining IC50 Values for test compounds at [ATP]=10×Km; [PAK1]=1 ng
Add 2 ml 5× Kinase Buffer to 8 ml water to prepare […] of Kinase Buffer A.
• Thaw the concentrated stock of test compound at room temperature. • 2.1. Add 10 μl of 100% DMSO to row A, columns 2-11 (wells A2-A11) in a 96-well assay plate (non-binding surface). To well A1, add 15 μl of the concentrated stock of test compound. This will be the highest concentration of test compound in a 10-point titration curve. Use a concentration that is 100× the final desired 1× concentration per 10 μl kinase reaction. For example, if the final 1× concentration of 100 μM is desired for the highest concentration of test compound in the 10 point titration curve, add 15 μl of 10 mM test compound to well A1. • 2.2. Titrate the 100× test compound three-fold across the assay plate from well A1 to well A10. To perform this threefold titration, transfer 5 μl of the 100× test compound from well A1 to the 10 μl of 100% DMSO in well A2. Repeat for wells A2-A10. Discard the final 5 μl from well A10 so that all wells contain 10 μl. […] This completes the 10-point three-fold titration of test compound at 100× concentration. • 2.3. Transfer a 2 μl aliquot of the 100× test compound titration series from each well in row A of the 96-well assay plate (wells A1-A12) to row B (wells B1-B12). Add 48 μl of complete kinase reaction buffer to each well in row B to dilute the 100× three-fold titration series of test compound to 4× (the DMSO will also be diluted, to 4%). • 2.4. Transfer 2.5 μl of the 4× concentrated three-fold titration series of test compound from row B of the 96-well assay plates to quadruplicate wells of a 384-well assay plate. Each well in columns 21-24 should contain 2.5 μl of 4% DMSO (no compound) in complete kinase reaction buffer. This 2.5 μl addition of 4× test compound in 4% DMSO produces a 1× concentration of test compound in 1% DMSO for a 10 μl kinase reaction. • 2.5. Dispense 2.5 μl of complete kinase reaction buffer to each well in columns 23-24 of the 384-well assay plate.
• 1. Prepare 500 μl of 4 μM Z′-LYTE® Phospho-peptide by adding 2 μl of 1 mM Z′-LYTE® Phospho-peptide to 498 μl of complete kinase reaction buffer. • 2. Dispense 5 μl of the 4 μM Z′-LYTE® Phospho-peptide (2×) to each well in column 24 of the 384-well assay plate. • 3. Prepare 1000 μl of 4 μM Z′-LYTE® Peptide Substrate (2×)/2× kinase solution in complete kinase reaction buffer. If necessary, prepare an intermediate dilution of the kinase in complete kinase reaction buffer before preparing the Z′-LYTE™ Peptide Substrate (2×)/2× kinase solution. Use the appropriate 2× kinase concentration in the assay to phosphorylate 20-50% of the 0% inhibition controls at the ATP concentration desired. • 4. […]

[6] = Microsomal stability, rat (RLM); format: in vitro ADME; details: rat microsomes; for microsomal CLint / half-life: liver microsomes; for half-life: read-out: t½; for CLh: in mL/min/kg (unit assumed)
[7] = system: other PAK family members (PAK2, PAK3, PAK4, PAK6, PAK7); assay: Inhibitory activity against other PAK family members; format: biochemical; details: in words
Protocol: A cell-based small molecule screening with 50,024 compounds was performed based on AML cell lines that grow in a PAK1-dependent manner, which has been previously described (Pandolfi et al., 2015). This was followed by single point PAK1 enzymatic activity screening against 360 compounds. Forty-six identified compounds that scored positive in this assay were subjected to enzymatic activity assays against other PAK family kinases including PAK2, PAK3, PAK4, PAK6, and PAK7. […] Those compounds were studied in further detail and key biochemical, pharmacokinetic, and structure-activity characteristics were determined.

[8] = iv, 2 mg/kg, IV, 2 mg/kg, mean, read-out: AUCINF
[9] = iv, 2 mg/kg, IV, 2 mg/kg, mean, read-out: AUClast
[10] = iv, 2 mg/kg, IV, 2 mg/kg, mean, read-out: Vss
[11] = iv, 2 mg/kg, IV, 2 mg/kg, mean, read-out: Vz
[12] = iv, 2 mg/kg, IV, dose 2 mg/kg, summary section, no unit printed there, read-out: AUCINF, IV plasma
[13] = iv, 2 mg/kg, IV, dose 2 mg/kg, summary section, no unit printed there, read-out: AUClast, IV plasma
[14] = po, 10 mg/kg, PO, 10 mg/kg, mean, read-out: AUCINF
[15] = po, 10 mg/kg, PO, 10 mg/kg, mean, read-out: AUClast
[16] = po, 10 mg/kg, PO, dose 10 mg/kg, summary section, no unit printed there, read-out: AUCINF, PO plasma
[17] = po, 10 mg/kg, PO, dose 10 mg/kg, summary section, no unit printed there, read-out: AUClast, PO plasma

- microsomal CLint [1]: 44.4 µL/min/mg
- half-life [1]: 62.4 min
- ER [1]: 0.66
- CLh [1]: 59.41
- ER [2]: 0.66
- CLh [2]: 14.31
- microsomal CLint [2]: 38.8 µL/min/mg
- half-life [2]: 71.4 min
- K el ([3]; IV, 2 mg/kg, mean): 3.03 h⁻¹
- Fabs, % (from AUCINF) [3]: 3.8%
- Fabs, % (from AUClast) [3]: 3.8%
- K el ([3]; PO, 10 mg/kg, mean): 1.05 h⁻¹
- C0 ([3]; IV, 2 mg/kg, mean): 3150 ng/mL
- Cmax ([3]; IV, 2 mg/kg, mean): 2210 ng/mL
- MRT inf ([3]; IV, 2 mg/kg, mean): 18 min
- Tmax ([3]; IV, 2 mg/kg, mean): 4.8 min
- clearance ([3]; IV, 2 mg/kg, mean): 36.7 mL/min/kg
- MRT last ([3]; IV, 2 mg/kg, mean): 17.4 min
- half-life ([3]; IV, 2 mg/kg, mean): 13.8 min
- CL/F ([3]; PO, 10 mg/kg, mean): 974 mL/min/kg
- Cmax ([3]; PO, 10 mg/kg, mean): 202 ng/mL
- MRT inf ([3]; PO, 10 mg/kg, mean): 50.4 min
- Tmax ([3]; PO, 10 mg/kg, mean): 19.8 min
- MRT last ([3]; PO, 10 mg/kg, mean): 45 min
- half-life ([3]; PO, 10 mg/kg, mean): 41.4 min
- Vd/F ([3]; PO, 10 mg/kg, mean): 56.2 L/kg
- AUC(0-inf) [3, 8]: 911 ng·h/mL
- AUC(0-t) [3, 9]: 909 ng·h/mL
- Vd [3, 10]: 0.65 L/kg
- Vd [3, 11]: 0.73 L/kg
- AUC(0-inf) [3, 12]: 911 ng·h/mL
- AUC(0-t) [3, 13]: 909 ng·h/mL
- AUC(0-inf) [3, 14]: 175 ng·h/mL
- AUC(0-t) [3, 15]: 171 ng·h/mL
- AUC(0-inf) [3, 16]: 175 ng·h/mL
- AUC(0-t) [3, 17]: 171 ng·h/mL
- inhibition against a larger kinase panel [4]: no significant inhibition
- IC50 [5]: 900 nM
- microsomal CLint [6]: 34 µL/min/mg
- half-life [6]: 81.5 min
- ER [6]: 0.53
- CLh [6]: 28.97
SMILES: COc1cccc(-c2oncc2CN2CCN(C(C)=O)CC2)c1 [Compound T813-0242, 1-(4-((5-(3-Methoxyphenyl)isoxazol-4-yl)methyl)piperazin-1-yl)ethanone]
- inhibitory activity against any of the other PAK family members [7]: no significant inhibitory activity

- microsomal CLint [1]: 243 µL/min/mg
- half-life [1]: 11.4 min
- ER [1]: 0.91
- CLh [1]: 82.27
- ER [2]: 0.83
- CLh [2]: 18.11
- microsomal CLint [2]: 114 µL/min/mg
- half-life [2]: 24.3 min
- K el ([3]; IV, 2 mg/kg, mean): 0.42 h⁻¹
- Fabs, % (from AUCINF) [3]: 9.4%
- Fabs, % (from AUClast) [3]: 9.1%
- K el ([3]; PO, 10 mg/kg, mean): 0.37 h⁻¹
- C0 ([3]; IV, 2 mg/kg, mean): 1010 ng/mL
- Cmax ([3]; IV, 2 mg/kg, mean): 740 ng/mL
- MRT inf ([3]; IV, 2 mg/kg, mean): 101 min
- Tmax ([3]; IV, 2 mg/kg, mean): 4.8 min
- clearance ([3]; IV, 2 mg/kg, mean): 46.8 mL/min/kg
- MRT last ([3]; IV, 2 mg/kg, mean): 87.6 min
- half-life ([3]; IV, 2 mg/kg, mean): 99.6 min
- CL/F ([3]; PO, 10 mg/kg, mean): 525 mL/min/kg
- Cmax ([3]; PO, 10 mg/kg, mean): 85.7 ng/mL
- MRT inf ([3]; PO, 10 mg/kg, mean): 181 min
- Tmax ([3]; PO, 10 mg/kg, mean): 70.2 min
- MRT last ([3]; PO, 10 mg/kg, mean): 151 min
- half-life ([3]; PO, 10 mg/kg, mean): 112 min
- Vd/F ([3]; PO, 10 mg/kg, mean): 84.8 L/kg
- AUC(0-inf) [3, 8]: 714 ng·h/mL
- AUC(0-t) [3, 9]: 695 ng·h/mL
- Vd [3, 10]: 4.77 L/kg
- Vd [3, 11]: 6.74 L/kg
- AUC(0-inf) [3, 12]: 714 ng·h/mL
- AUC(0-t) [3, 13]: 695 ng·h/mL
- AUC(0-inf) [3, 14]: 334 ng·h/mL
- AUC(0-t) [3, 15]: 315 ng·h/mL
- AUC(0-inf) [3, 16]: 334 ng·h/mL
- AUC(0-t) [3, 17]: 315 ng·h/mL
- inhibition against a larger kinase panel [4]: no significant inhibition
- IC50 [5]: 5000 nM
- microsomal CLint [6]: 159 µL/min/mg
- half-life [6]: 17.4 min
- ER [6]: 0.84
- CLh [6]: 46.14
SMILES: CCC1CCCCN1c1cc(C)nc2nc(-c3ccc(C)cc3)nn12 (stereo not drawn) [Compound D245-0091, 7-(2-Ethylpiperidin-1-yl)-5-methyl-2-(p-tolyl)-[1,2,4]triazolo[1,5-a]pyrimidine]
- inhibitory activity against any of the other PAK family members [7]: no significant inhibitory activity

- microsomal CLint [1]: 664 µL/min/mg
- half-life [1]: 4.18 min
- ER [1]: 0.97
- CLh [1]: 87.00
- ER [2]: 0.89
- CLh [2]: 19.24
- microsomal CLint [2]: 199 µL/min/mg
- half-life [2]: 13.9 min
- K el ([3]; IV, 2 mg/kg, mean): 0.07 h⁻¹
- C0 ([3]; IV, 2 mg/kg, mean): 71.7 ng/mL
- Cmax ([3]; IV, 2 mg/kg, mean): 53.4 ng/mL
- MRT inf ([3]; IV, 2 mg/kg, mean): 736 min
- Tmax ([3]; IV, 2 mg/kg, mean): 4.8 min
- clearance ([3]; IV, 2 mg/kg, mean): 214 mL/min/kg
- MRT last ([3]; IV, 2 mg/kg, mean): 391 min
- half-life ([3]; IV, 2 mg/kg, mean): 636 min
- Cmax ([3]; PO, 10 mg/kg, mean): 17.4 ng/mL
- Tmax ([3]; PO, 10 mg/kg, mean): 200 min
- MRT last ([3]; PO, 10 mg/kg, mean): 238 min
- AUC(0-inf) [3, 8]: 156 ng·h/mL
- AUC(0-t) [3, 9]: 129 ng·h/mL
- Vd [3, 10]: 158 L/kg
- Vd [3, 11]: 197 L/kg
- AUC(0-t) [3, 15]: 92.7 ng·h/mL
- inhibition against a larger kinase panel [4]: no significant inhibition
- IC50 [5]: 470 nM
- microsomal CLint [6]: 1830 µL/min/mg
- half-life [6]: 1.51 min
- ER [6]: 0.98
- CLh [6]: 54.10
SMILES: CSc1ccc(-c2nc3cccc(C)n3c2Nc2ccc3c(c2)OCCO3)cc1 [Compound C273-0489]
- inhibitory activity against any of the other PAK family members [7]: no significant inhibitory activity
